Experimental data reported in patent US4076704A, “Dipeptide derivatives and their production” (Shionogi & Co., Ltd., priority 1974, dated 1978).

Key:
Assay type in all cases: in vivo
DS male mice [1] = assay: Anti-pentylenetetrazol activity; conditions: compound given orally 60 minutes prior to 125 mg/kg s.c. pentylenetetrazol, complete protection against mortality, observed 2 hours
Text: 1. Anti-pentylenetetrazol activity
The convulsions were disregarded.

DS male mice [2] = assay: Taming activity (inhibition of electroshock-induced fighting); conditions: compound administered 60 minutes prior, inhibition of fighting responses, 5 pairs
Description: (§1) This test was measured on DS male mice.
These pairs of mice were selected in the morning and used for drug test in the afternoon. The test compound was administered to both mice of the pairs 60 minutes prior to the experiment. Results were obtained as the mean percentage of inhibition of fighting responses in a group of 5 pairs and shown by ED50 [Tedeschi, et al.: J. Pharmacol Exp. Thev., 125, 28-34 (1959)].

DS male mice [3] = assay: Rotarod performance activity; conditions: fall from rod within less than 2 minutes
Description: 3. Rotarod performance activity:
as §1
The mouse was put on a scraped rod of wood, 3 cm in diameter, turning at the rate of five rotations per minute. The mice that could remain on the rod for 3 or more minutes in successive trails were selected and placed in a group of 10 mice for each dose. If the mouse fell down from the rod within less than 2 minutes, the test compound was considered to be effective. Results were shown by ED50 [Dunham, et al.: J. Am. Pharm. Assoc., 46, 208 (1957)].

Structure (SMILES) | Anti-pentylenetetrazol activity, ED50 (DS male mice [1]) | Taming activity ED50 (DS male mice [2]) | Rotarod performance ED50 (DS male mice [3])
CN(C(=O)CNC(=O)CN)c1ccc(Cl)cc1C(=O)c1ccccc1 [Compound 1, 2-benzoyl-4-chloro-N-methyl-N^α -glycyl-glycinanilide] | 1.0 mg/kg |  | 
CN(C(=O)CNC(=O)CN)c1ccc(Cl)cc1C(=O)c1ccccc1Cl.O [Compound 2, 2-o-chlorobenzoyl-4-chloro-N-methyl-N^α -glycyl-glycinanilide hydrate] | 0.58 mg/kg | 3.0 mg/kg | 
CN(C(=O)CNC(=O)CN)c1ccc(Cl)cc1C(=O)c1ccccc1F.Cl [Compound 3, 2-o-fluorobenzoyl-4-chloro-N-methyl-N^α -glycyl-glycinanilide hydrochloride] | 0.33 mg/kg | 1.6 mg/kg | 17.0 mg/kg
CNC1=Nc2ccc(Cl)cc2C(c2ccccc2)=[N+]([O-])C1 [Compound 4, Chlordiazepoxide, reference compound] |  |  | 50.0 mg/kg
